From ChEMBL document CHEMBL1201862, “PubChem BioAssay data set” (2004)
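Values below derive from 48-hour exposures of cells grown in 96-well plates, with endpoints linearly interpolated between the two concentrations bracketing the appropriate inhibition level. GI50 marks 50% less growth.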 The source made the active and inactive calls. Cut-off read from the data, not from the text of the source: active = GI50 up to about 1.1 µM and inactive = higher.

What was measured:
Assay in all cases: NCI tumour cell line growth inhibition, 48 h
[1] = tested on: U-251
[2] = tested on: SR
[3] = tested on: SF-295
[4] = tested on: UACC-257
[5] = tested on: HOP-62
[6] = tested on: OVCAR-8
[7] = tested on: SW-620
[8] = tested on: ACHN
[9] = tested on: OVCAR-3
[10] = tested on: EKVX
[11] = tested on: COLO 205
[12] = tested on: SNB-19
[13] = tested on: UO-31
[14] = tested on: TK-10
[15] = tested on: NCI-H522
[16] = tested on: OVCAR-4
[17] = tested on: OVCAR-5
[18] = tested on: MDA-MB-435
[19] = tested on: MDA-MB-231
[20] = tested on: DU-145

Measured: GI50

Nc1ccc(/N=N/c2ccc(-c3ccc(/N=N/c4c(S(=O)(=O)O)cc5cc(S(=O)(=O)O)c(/N=N/c6ccc([N+](=O)[O-])cc6)c(N)c5c4O)cc3)cc2)c2cc(S(=O)(=O)O)ccc12
inactive: [1] > 100 µM | [2] > 100 µM | [3] 84.5 µM | [4] > 100 µM | [5] > 100 µM | [6] > 100 µM | [7] > 100 µM | [8] > 100 µM | [9] > 100 µM | [10] > 100 µM | [11] > 100 µM | [12] > 100 µM | [13] > 100 µM | [14] > 100 µM | [15] > 100 µM | [16] > 100 µM | [17] > 100 µM

COc1ccccc1C1C(Cl)C(=O)N1NC(=O)Cc1ccccc1 (stereo unspecified)
inactive: [1] > 100 µM | [2] 26.2 µM | [3] > 100 µM | [4] > 100 µM | [5] 82.4 µM | [6] > 100 µM | [7] 52.4 µM | [8] > 100 µM | [9] > 100 µM | [10] > 100 µM | [11] > 100 µM | [12] > 100 µM | [13] 32.1 µM | [14] > 100 µM | [15] 48.3 µM | [16] 75.7 µM | [17] > 100 µM

O=C(CSc1nc2nncc-2c(O)[nH]1)c1ccc(Cl)cc1
inactive: [1] > 100 µM | [2] > 100 µM | [3] > 100 µM | [4] > 100 µM | [5] > 100 µM | [6] > 100 µM | [7] > 100 µM | [8] > 100 µM | [9] > 100 µM | [10] 66.5 µM | [18] > 100 µM | [11] > 100 µM | [12] > 100 µM | [13] > 100 µM | [19] > 100 µM | [14] > 100 µM | [15] > 100 µM | [16] > 100 µM | [17] > 100 µM

C/C=C/C[C@@H](C)[C@@H](O)[C@H]1C(=O)N[C@@H](CC)C(=O)N(C)CC(=O)N(C)[C@@H](CC(C)C)C(=O)N[C@@H](C(C)C)C(=O)N(C)[C@@H](CC(C)C)C(=O)N[C@@H](C)C(=O)N[C@H](C)C(=O)N(C)[C@@H](CC(C)C)C(=O)N(C)[C@@H](CC(C)C)C(=O)N(C)[C@@H](C(C)C)C(=O)N1C [CYCLOSPORINE]
inactive: [1] 7.66 µM | [2] 1.47 µM | [3] 2.79 µM | [4] 2.05 µM | [5] 3.91 µM | [6] 12.2 µM | [7] 11.2 µM | [8] 5.5 µM | [9] 3.8 µM | [10] 10.4 µM | [11] 1.77 µM | [12] 10.5 µM | [13] 3.26 µM | [14] 7.82 µM | [15] 5.48 µM | [16] 4.18 µM | [17] 6.93 µM

COC(=O)C(CCC1(C)OCCO1)=[N+]=[N-]
inactive: [1] > 100 µM | [2] > 100 µM | [3] > 100 µM | [4] > 100 µM | [5] > 100 µM | [6] > 100 µM | [7] > 100 µM | [8] > 100 µM | [9] > 100 µM | [10] > 100 µM | [11] > 100 µM | [12] > 100 µM | [13] > 100 µM | [14] > 100 µM | [15] > 100 µM | [16] > 100 µM | [17] > 100 µM

COC(=O)c1c(C)cccc1C1CN=NC12Cc1cccc(C)c1C2=O (stereo unspecified)
inactive: [1] 39.4 µM | [2] 26.7 µM | [20] 47.3 µM | [4] 19.6 µM | [5] 53.6 µM | [6] 33.9 µM | [7] 43.2 µM | [8] 27.4 µM | [10] 32 µM | [18] 31.1 µM | [11] 42.7 µM | [12] 48.8 µM | [13] 14.4 µM | [14] 35 µM | [15] 15.9 µM | [16] 23.9 µM | [17] 85.7 µM

O=C1[C@H](O)[C@@H]2CCC[C@@]23CCCN13
inactive: [1] > 100 µM | [2] > 100 µM | [3] > 100 µM | [20] > 100 µM | [4] > 100 µM | [5] > 100 µM | [6] > 100 µM | [7] > 100 µM | [8] > 100 µM | [9] > 100 µM | [10] > 100 µM | [18] > 100 µM | [11] > 100 µM | [13] > 100 µM | [14] > 100 µM | [15] > 100 µM | [17] > 100 µM

CC[C@@H]1CC[C@@H]2[C@H](CC[C@]3(C)[C@@H](OS(=O)(=O)c4ccc(C)cc4)CC[C@@H]23)[C@H]1COS(=O)(=O)c1ccc(C)cc1
inactive: [1] > 100 µM | [2] > 100 µM | [3] > 100 µM | [20] > 100 µM | [4] > 100 µM | [6] > 100 µM | [7] > 100 µM | [8] > 100 µM | [10] > 100 µM | [18] > 100 µM | [12] > 100 µM | [13] 51.4 µM | [14] > 100 µM | [16] > 100 µM

CN(N=O)C(=O)NC(CCCCNC(=O)OCc1ccccc1)C(=O)OCc1ccccc1 (stereo unspecified)
inactive: [1] 53.3 µM | [2] 14.9 µM | [3] 32.4 µM | [4] 16.5 µM | [5] 28.5 µM | [6] 19.2 µM | [7] 27.6 µM | [8] 17.7 µM | [9] 25.3 µM | [10] > 100 µM | [11] 23.7 µM | [12] > 100 µM | [13] 20.2 µM | [14] 33.4 µM | [15] 13.1 µM | [16] 71.1 µM | [17] > 100 µM

CC(C)(C)OC(=O)N1NC(c2ccccc2)CC1c1ccccc1 (stereo unspecified)
inactive: [2] 27.2 µM | [3] 33.6 µM | [20] 27.2 µM | [4] 43.7 µM | [5] 50.8 µM | [6] 35.3 µM | [7] 45 µM | [8] 28.1 µM | [9] 34.8 µM | [10] 33.7 µM | [18] 24.3 µM | [11] 20 µM | [13] 15.7 µM | [14] 37.3 µM | [15] 31.6 µM | [17] 28.4 µM

NC12CC3C4CC5(N)CC3C(C1)C(C5)C4C2
inactive: [1] > 100 µM | [3] > 100 µM | [4] > 100 µM | [5] > 100 µM | [6] > 100 µM | [7] > 100 µM | [8] > 100 µM | [9] > 100 µM | [10] > 100 µM | [18] > 100 µM | [11] > 100 µM | [12] > 100 µM | [13] > 100 µM | [19] > 100 µM | [14] > 100 µM | [15] > 100 µM | [16] > 100 µM | [17] > 100 µM
